Assay results: US9238657B2, “Cephalosporin having catechol group” (SHIONOGI & CO., LTD., priority 2008, dated 2016)
Values after ≈ are worked out from the molar mass of the structure shown. Like-named read-outs stand apart in the source and are kept apart here.

Key:
Assay in all cases: Minimum Inhibitory Concentration (MIC), agar plate incubation
Format in all cases: cell-based
[1] = system: Klebsiella pneumoniae ATCC 700603
Procedure: (§1) Measurement of Minimum Inhibitory Concentration (MIC, microg/ml) was conducted according to the standard method of the Japan Society for Chemotherapy, and the amount of bacteria for inoculation was 1000 cfu/spot, and sensitive disc medium was used as the test medium, and conducted using agar plate incubation.
(§2) In the tables, a unit of the values of inhibitory activity is microg/ml (μg/ml).
(§3) Bacterial strains described in the above tables and enzyme (beta-lactamase) produced thereby are explained in Table 7.

[2] = system: Pseudomonas aeruginosa SR24
Procedure: as §1, §2, §3

[3] = system: Acinetobacter baumannii SR24396
Procedure: as §1, §2, §3

[4] = system: Pseudomonas aeruginosa SR27060
Procedure: as §1, §2, §3

[5] = system: Stenotrophomonas maltophilia SR21970
Procedure: as §1, §2, §3

[6] = ATCC700603, Klebsiella pneumoniae ATCC 700603 (SHV-18, ESBL producer strain), 1000 cfu/spot, sensitive disc medium, read-out: Minimum Inhibitory Concentration (MIC)
[7] = Pseudomonas aeruginosa SR24 (no enzyme, Ceftazidime sensitive strain), 1000 cfu/spot, sensitive disc medium, read-out: Minimum Inhibitory Concentration (MIC)
[8] = Acinetobacter baumannii SR24396 (no enzyme), 1000 cfu/spot, sensitive disc medium, read-out: Minimum Inhibitory Concentration (MIC)
[9] = Pseudomonas aeruginosa SR27060 (IMP-1, MBL producer strain, carbapenem resistant), 1000 cfu/spot, sensitive disc medium, read-out: Minimum Inhibitory Concentration (MIC)
[10] = Stenotrophomonas maltophilia SR21970 (L-1, MBL producer strain, carbapenem resistant), 1000 cfu/spot, sensitive disc medium, read-out: Minimum Inhibitory Concentration (MIC)
[11] = Klebsiella pneumoniae, ATCC700603, read-out: Minimum Inhibitory Concentration (MIC)
[12] = Pseudomonas aeruginosa, SR24, read-out: Minimum Inhibitory Concentration (MIC)
[13] = Acinetobacter baumannii, SR24396, read-out: Minimum Inhibitory Concentration (MIC)
[14] = Pseudomonas aeruginosa, SR27060, read-out: Minimum Inhibitory Concentration (MIC)
[15] = Stenotrophomonas maltophilia, SR21970, read-out: Minimum Inhibitory Concentration (MIC)

Row | SMILES | MIC [1, 6] [µg/mL] | MIC [2, 7] [µg/mL] | MIC [3, 8] [µg/mL] | MIC [4, 9] [µg/mL] | MIC [5, 10] [µg/mL] | MIC [1, 11] [µg/mL] | MIC [2, 12] [µg/mL] | MIC [3, 13] [µg/mL] | MIC [4, 14] [µg/mL] | MIC [5, 15] [µg/mL]
1 | CC(C)(O/N=C(\C(=O)N[C@@H]1C(=O)N2C(C(=O)O)=C(C[N+]3(CCNC(=O)c4cc(Cl)c(O)c(O)c4Cl)CCCC3)CS[C@H]12)c1csc(N)n1)C(=O)O [Compound I-3] | 0.125 | 0.031 | 0.125 | 0.125 |  |  |  |  |  | 
2 | CC(C)[C@H](O/N=C(\C(=O)N[C@@H]1C(=O)N2C(C(=O)[O-])=C(C[N+]34CCC(CNC(=O)c5ccc(O)c(O)c5Cl)(CC3)CC4)CS[C@H]12)c1csc(N)n1)C(=O)[O-].[Na+] [II-25] | 0.25 | 0.063 | 0.25 | 0.25 | 1 |  |  |  |  | 
3 | C[C@H](O/N=C(\C(=O)N[C@@H]1C(=O)N2C(C(=O)[O-])=C(C[N+]3(CCCNC(=O)c4ccc(O)c(O)c4)CCCC3)CS[C@H]12)c1nc(N)sc1Cl)C(=O)O [Compound I-26] | 0.5 (≈ 0.665 µM) | 0.125 (≈ 0.166 µM) | 1 (≈ 1.33 µM) | 0.5 (≈ 0.665 µM) |  |  |  |  |  | 
4 | C[C@H](O/N=C(\C(=O)N[C@@H]1C(=O)N2C(C(=O)[O-])=C(C[N+]3(CCNC(=O)c4ccc(O)c(O)c4Cl)CCCC3)CS[C@H]12)c1csc(N)n1)C(=O)O [II-22] | 0.5 (≈ 0.677 µM) | 0.125 (≈ 0.169 µM) | 0.125 (≈ 0.169 µM) | 0.25 (≈ 0.339 µM) | 2 (≈ 2.71 µM) |  |  |  |  | 
5 | C[C@H](O/N=C(\C(=O)N[C@@H]1C(=O)N2C(C(=O)[O-])=C(C[N+]3(CCN(C)C(=O)c4ccc(O)c(O)c4)CCCC3)CS[C@H]12)c1nc(N)sc1Cl)C(=O)O [Compound I-25] | 0.5 (≈ 0.665 µM) | 0.125 (≈ 0.166 µM) | 0.5 (≈ 0.665 µM) | 0.25 (≈ 0.332 µM) |  |  |  |  |  | 
6 | CC(C)(O/N=C(\C(=O)N[C@@H]1C(=O)N2C(C(=O)[O-])=C(C[N+]3(CCNC(=O)c4ccc(O)c(O)c4Cl)CCCCC3)CS[C@H]12)c1csc(N)n1)C(=O)O [Compound I-18] | 0.125 (≈ 0.163 µM) | 0.063 (≈ 0.0822 µM) | 0.25 (≈ 0.326 µM) | 0.25 (≈ 0.326 µM) | 0.5 (≈ 0.653 µM) |  |  |  |  | 
7 | CC(C)[C@H](O/N=C(\C(=O)N[C@@H]1C(=O)N2C(C(=O)[O-])=C(C[N+]3(CCNC(=O)c4ccc(O)c(O)c4Cl)CCCC3)CS[C@H]12)c1csc(N)n1)C(=O)O [II-23] | 0.125 (≈ 0.163 µM) | 0.125 (≈ 0.163 µM) | 0.25 (≈ 0.326 µM) | 0.25 (≈ 0.326 µM) | 0.5 (≈ 0.653 µM) |  |  |  |  | 
8 | CC(C)(O/N=C(\C(=O)N[C@@H]1C(=O)N2C(C(=O)[O-])=C(C[N+]3(CCNC(=O)c4ccc(O)c(O)c4Cl)CCCC3)CS[C@H]12)c1csc(N)n1)C(=O)O [Compound I-12] | 0.25 (≈ 0.332 µM) | 0.063 (≈ 0.0838 µM) | 0.25 (≈ 0.332 µM) | 0.125 (≈ 0.166 µM) | 0.5 (≈ 0.665 µM) |  |  |  |  | 
9 | C[C@H](O/N=C(\C(=O)N[C@@H]1C(=O)N2C(C(=O)[O-])=C(C[N+]3(CCNC(=O)c4cc(Cl)c(O)c(O)c4Cl)CCCCC3)CS[C@H]12)c1nc(N)sc1Cl)C(=O)[O-].[Na+] [Compound I-23] | 0.031 | 0.031 | 0.125 | 0.125 |  |  |  |  |  | 
10 | CC(C)(O/N=C(\C(=O)N[C@@H]1C(=O)N2C(C(=O)[O-])=C(C[N+]3(CCNC(=O)c4ccc(O)c(O)c4)CCCCC3)CS[C@H]12)c1csc(N)n1)C(=O)O [Compound I-17] | 0.25 (≈ 0.342 µM) | 0.063 (≈ 0.0861 µM) | 0.5 (≈ 0.683 µM) | 0.125 (≈ 0.171 µM) | 0.5 (≈ 0.683 µM) |  |  |  |  | 
11 | C[C@H](O/N=C(\C(=O)N[C@@H]1C(=O)N2C(C(=O)[O-])=C(C[N+]3(CCNC(=O)c4ccc(O)c(O)c4Cl)CCCC3)CS[C@H]12)c1nc(N)sc1Cl)C(=O)[O-].[Na+] [Compound I-15] | 0.125 | 0.063 | 0.25 | 0.125 | 4 |  |  |  |  | 
12 | C[C@H](O/N=C(\C(=O)N[C@@H]1C(=O)N2C(C(=O)[O-])=C(C[N+]3(CCNC(=O)c4ccc(O)c(O)c4Cl)CCCCC3)CS[C@H]12)c1nc(N)sc1Cl)C(=O)[O-].[Na+] [Compound I-22] | 0.125 | 0.063 | 0.25 | 0.125 | 4 |  |  |  |  | 
13 | C=C(O/N=C(\C(=O)N[C@@H]1C(=O)N2C(C(=O)[O-])=C(C[N+]3(CCNC(=O)c4ccc(O)c(O)c4Cl)CCCC3)CS[C@H]12)c1csc(N)n1)C(=O)O [II-1] | 0.5 (≈ 0.679 µM) | 0.125 (≈ 0.17 µM) | 0.125 (≈ 0.17 µM) | 0.25 (≈ 0.34 µM) | 2 (≈ 2.72 µM) |  |  |  |  | 
14 | CC(C)(O/N=C(\C(=O)N[C@@H]1C(=O)N2C(C(=O)[O-])=C(C[N+]3(CCNC(=O)c4ccc(O)c(O)c4Cl)CCCCCC3)CS[C@H]12)c1csc(N)n1)C(=O)O [Compound I-8] |  |  |  |  |  | 0.125 (≈ 0.16 µM) | 0.031 (≈ 0.0397 µM) | 0.25 (≈ 0.32 µM) | 0.125 (≈ 0.16 µM) | 
15 | CC(C)(O/N=C(\C(=O)N[C@@H]1C(=O)N2C(C(=O)O)=C(C[N+]3(CCNC(=O)c4ccc(O)c(O)c4)CCCC3)CS[C@H]12)c1csc(N)n1)C(=O)O [Compound I-2] | 0.25 | 0.063 | 0.25 | 0.125 |  |  |  |  |  | 
16 | Nc1nc(/C(=N/O[C@H](C(=O)O)c2ccccc2)C(=O)N[C@@H]2C(=O)N3C(C(=O)[O-])=C(C[N+]4(CCNC(=O)c5ccc(O)c(O)c5Cl)CCCC4)CS[C@H]23)cs1 [II-3] |  |  |  |  |  | 0.125 (≈ 0.156 µM) | 0.125 (≈ 0.156 µM) | 0.25 (≈ 0.312 µM) | 0.5 (≈ 0.625 µM) | 1 (≈ 1.25 µM)
17 | CC(C)(O/N=C(\C(=O)N[C@@H]1C(=O)N2C(C(=O)[O-])=C(C[N+]3(CCNC(=O)c4cc(Cl)c(O)c(O)c4Cl)CCCCC3)CS[C@H]12)c1csc(N)n1)C(=O)O [Compound I-19] | 0.125 (≈ 0.156 µM) | 0.063 (≈ 0.0787 µM) | 0.125 (≈ 0.156 µM) | 0.125 (≈ 0.156 µM) | 0.25 (≈ 0.312 µM) |  |  |  |  | 
18 | NC(=O)C[C@H](O/N=C(\C(=O)N[C@@H]1C(=O)N2C(C(=O)[O-])=C(C[N+]3(CCNC(=O)c4ccc(O)c(O)c4Cl)CCCC3)CS[C@H]12)c1csc(N)n1)C(=O)O [II-4] |  |  |  |  |  | 0.5 (≈ 0.64 µM) | 0.125 (≈ 0.16 µM) | 0.25 (≈ 0.32 µM) | 0.25 (≈ 0.32 µM) | 1 (≈ 1.28 µM)
19 | Nc1nc(/C(=N/OC2(C(=O)[O-])CC2)C(=O)N[C@@H]2C(=O)N3C(C(=O)O)=C(C[N+]4(CCNC(=O)c5ccc(O)c(O)c5Cl)CCCC4)CS[C@H]23)cs1 [II-2] | 0.5 (≈ 0.666 µM) | 0.125 (≈ 0.167 µM) | 0.125 (≈ 0.167 µM) | 0.25 (≈ 0.333 µM) | 0.5 (≈ 0.666 µM) |  |  |  |  | 
20 | CC(C)(O/N=C(\C(=O)N[C@@H]1C(=O)N2C(C(=O)[O-])=C(C[N+]3(CCNC(=O)c4ccc(O)c(O)c4Cl)CCCC3)CS[C@H]12)c1nsc(N)n1)C(=O)O [Compound I-1] | 0.5 (≈ 0.664 µM) | 0.063 (≈ 0.0836 µM) | 0.125 (≈ 0.166 µM) | 0.25 (≈ 0.332 µM) | 0.5 (≈ 0.664 µM) |  |  |  |  | 
21 | C[C@@H](C[N+]1(CC2=C(C(=O)O)N3C(=O)[C@@H](NC(=O)/C(=N\OC(C)(C)C(=O)[O-])c4csc(N)n4)[C@H]3SC2)CCCC1)NC(=O)c1ccc(O)c(O)c1Cl [II-12] |  |  |  |  |  | 0.25 (≈ 0.326 µM) | 0.063 (≈ 0.0822 µM) | 0.25 (≈ 0.326 µM) | 0.25 (≈ 0.326 µM) | 1 (≈ 1.31 µM)
22 | Nc1nc(/C(=N/O/C(=C/C(=O)O)C(=O)O)C(=O)N[C@@H]2C(=O)N3C(C(=O)O)=C(C[N+]4(CCNC(=O)c5ccc(O)c(O)c5Cl)CCCC4)CS[C@H]23)cs1 [II-10] | 0.5 | 0.125 | 0.25 | 0.25 | 1 |  |  |  |  | 
23 | Nc1nc(/C(=N/OC2(C(=O)O)CCC2)C(=O)N[C@@H]2C(=O)N3C(C(=O)[O-])=C(C[N+]4(CCNC(=O)c5ccc(O)c(O)c5Cl)CCCC4)CS[C@H]23)cs1 [II-24] | 0.125 (≈ 0.164 µM) | 0.063 (≈ 0.0824 µM) | 0.125 (≈ 0.164 µM) | 0.5 (≈ 0.654 µM) | 0.5 (≈ 0.654 µM) |  |  |  |  | 
